According to ChEMBL document CHEMBL5053551, “Structure-Based Design of Dual Partial Peroxisome Proliferator-Activated Receptor γ Agonists/Soluble Epoxide Hydrolase Inhibitors” (J Med Chem, 2021):
In brackets after ≈: the same amount, converted by molar mass. Activity calls are given as the source filed them. The calls are words filed in the database; no cut-off is given here.

Experiments:
HepG2 [1] = assay: Cytotoxicity agianst human HepG2 cells assessed as reduction in cell viability at 30 uM after 48 hrs by WST-1 assay; type: cell-based; conditions: hepg2, 48 h
HepG2 [2] = assay: Induction of cell proliferation in human HepG2 cells; type: functional, cell-based; conditions: dose 2.5-100 µM
3T3-L1 = assay: Induction of cell differentiation in mouse 3T3-L1 cells assessed as increase in differentiation cocktail-induced lipid accumulation at 0.3 to 3 uM incubated for 2 days by Oil-Red O staining based assay; type: functional; conditions: dose 0.3-3 µM, time 2.0 day
[3] = target: T1, Peroxisome proliferator-activated receptor gamma (Homo sapiens, UniProt P37231); assay: Partial agonist activity at sGSF-PPARgamma (unknown origin) assessed as CBP-1 recruitment by HT-FRET assay
T1 sequence (P37231 whole entry): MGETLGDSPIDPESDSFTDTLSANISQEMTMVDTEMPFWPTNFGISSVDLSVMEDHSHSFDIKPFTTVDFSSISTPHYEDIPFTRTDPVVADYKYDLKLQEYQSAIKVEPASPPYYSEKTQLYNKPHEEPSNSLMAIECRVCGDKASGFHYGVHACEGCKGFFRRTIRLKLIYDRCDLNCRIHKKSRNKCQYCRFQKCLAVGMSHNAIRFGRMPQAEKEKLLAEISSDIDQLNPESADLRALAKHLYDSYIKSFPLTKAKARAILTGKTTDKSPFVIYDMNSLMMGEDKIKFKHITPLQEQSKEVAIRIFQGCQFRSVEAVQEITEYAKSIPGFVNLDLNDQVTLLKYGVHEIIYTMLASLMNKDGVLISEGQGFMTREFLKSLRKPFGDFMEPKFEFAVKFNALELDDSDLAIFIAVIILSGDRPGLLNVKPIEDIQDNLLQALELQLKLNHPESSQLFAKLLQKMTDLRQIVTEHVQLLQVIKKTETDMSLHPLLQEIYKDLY

[4] = Solubility of compound in DPBS buffer; type: physicochemical
[5] = target: T2, Peroxisome proliferator-activated receptor alpha (Homo sapiens) (UniProt Q07869); assay: Partial agonist activity at GAL4-tagged human PPARalpha LBD expressed in HEK293T cells at 3 uM incubated for 12 to 14 hrs by dual-Glo luciferase assay; type: cell-based; conditions: time 12-14 hrs
T2 sequence (whole entry): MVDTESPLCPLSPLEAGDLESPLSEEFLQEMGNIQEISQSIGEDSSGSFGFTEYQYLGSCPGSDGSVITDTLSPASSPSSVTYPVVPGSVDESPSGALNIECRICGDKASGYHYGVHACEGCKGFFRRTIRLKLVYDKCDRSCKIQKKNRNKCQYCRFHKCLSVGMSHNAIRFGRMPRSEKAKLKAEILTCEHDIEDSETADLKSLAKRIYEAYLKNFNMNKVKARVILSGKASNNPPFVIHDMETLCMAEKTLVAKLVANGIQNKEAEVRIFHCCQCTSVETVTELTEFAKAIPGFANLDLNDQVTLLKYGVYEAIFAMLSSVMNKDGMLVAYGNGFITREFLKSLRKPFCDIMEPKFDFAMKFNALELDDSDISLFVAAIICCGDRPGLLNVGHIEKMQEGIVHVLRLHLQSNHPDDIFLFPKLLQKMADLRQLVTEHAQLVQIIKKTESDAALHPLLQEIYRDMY

[6] = Stability of compound in BALB/c mouse liver microsomes assessed as half life at 10 uM preincubated for 5 mins in presence of NADPH regenerating system followed by microsomal addition and measured upto 60 mins by HPLC analysis; type: ADME, Microsome; conditions: time 65 min
[7] = target: T3, Peroxisome proliferator-activated receptor gamma (Homo sapiens) (UniProt P37231); assay: Partial agonist activity at recombinant sGSF-PPARgamma (unknown origin) assessed as CBP-1 recruitment by HT-FRET assay relative to control
T3 sequence (whole entry): T1 sequence (P37231 whole entry)

[8] = Drug metabolism in rat liver microsomes assessed as metabolite formation after 60 mins by UPLC-MS analysis; type: ADME, Microsome; conditions: 1 h
[9] = target: T1, Peroxisome proliferator-activated receptor gamma; assay: Partial agonist activity at recombinant sGSF-PPARgamma (unknown origin) assessed as reduction in rosiglitazone induced CBP-1 recruitment incubated for 1 hr by HTRF competitive assay
[10] = target: T4, Bifunctional epoxide hydrolase 2 (Homo sapiens, UniProt P34913); assay: Inhibition of recombinant human full length sEH assessed as reduction in 6-methoxy-2-naphthaldehyde formation using PHOME as substrate preincubated for 30 to 45 mins followed by substrate addition and measured after 30 to 45 mins by fluorescence assay
T4 sequence (P34913 whole entry): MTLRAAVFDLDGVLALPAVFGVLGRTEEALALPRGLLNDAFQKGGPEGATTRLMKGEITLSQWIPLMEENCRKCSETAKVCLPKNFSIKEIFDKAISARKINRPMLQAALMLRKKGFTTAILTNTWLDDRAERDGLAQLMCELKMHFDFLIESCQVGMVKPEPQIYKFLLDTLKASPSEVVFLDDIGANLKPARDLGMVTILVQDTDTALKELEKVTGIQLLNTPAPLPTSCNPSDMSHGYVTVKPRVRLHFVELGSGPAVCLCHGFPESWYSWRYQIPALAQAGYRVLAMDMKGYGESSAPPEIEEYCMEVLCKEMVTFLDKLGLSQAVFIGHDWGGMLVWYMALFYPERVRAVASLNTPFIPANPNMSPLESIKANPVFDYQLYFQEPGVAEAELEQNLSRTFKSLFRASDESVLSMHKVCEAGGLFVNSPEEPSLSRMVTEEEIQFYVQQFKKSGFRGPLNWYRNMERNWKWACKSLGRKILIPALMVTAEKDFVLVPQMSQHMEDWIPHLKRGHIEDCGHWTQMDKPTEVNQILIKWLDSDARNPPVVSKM

HepG2 [11] = assay: Cytotoxicity agianst human HepG2 cells assessed as reduction in cell viability at 10 to 30 uM after 48 hrs by WST-1 assay; type: cell-based; conditions: hepg2, 48 h, dose 10-30 µM

EC50 [3]	solubility [4]	Activity [5]	half-life at 10 µM [6]	Emax [7]	Drug metabolism [8]	IC50 [9]	IC50 [10]	Compound	Activity (HepG2 [1])	Activity (HepG2 [2])	Activity (3T3-L1)	Activity (HepG2 [11])
0.18 µM	3 µM (≈ 1.64 µg/mL)	inactive	0.983 h	28%				O=C(NCc1ccc(NS(=O)(=O)C2CC2)cc1C(F)(F)F)c1ccc2c(ccn2Cc2cccc(F)c2)c1	Non-Toxic	Dose-dependent effect	Active	
0.33 µM	3 µM (≈ 1.56 µg/mL)	inactive	1.02 h	19%	Metabolite_Detected	1.62 µM	0.005 µM	CS(=O)(=O)Nc1ccc(CNC(=O)c2ccc3c(ccn3Cc3cccc(F)c3)c2)c(C(F)(F)F)c1			Active	Toxic
